# Laboratory results published in patent US6680308B1, “Use of organophosphorus compounds for the therapeutic and prophylactic treatment of infections” (priority 1998, dated 2004).
# How the values were obtained:
# Plasmodium vinckeii [1] = test: Efficacy against malaria in vivo, modified Peters' test, treatment of infected mice
# Procedure: The various derivatives were tested by the modified Peters' test. The substances were applied here in a quarter of the median lethal dose (LD50). In the test batch ten mice were infected with Plasmodium vinckeii, the pathogen of mouse malaria. After confirmation of the infection by blood testing four mice were treated. Six mice, which were not treated, served as a control group. […] The control mice had to be killed on day 5 after infection with parasitaemia of >80%.
# Plasmodium vinckeii [2] = test: Protection from malaria in infected mice, pretreatment one day before infection; format: in vivo, mice (BALB/c-strain)
# Procedure: The efficacy of compounds in vivo against malaria was tested using male mice weighing 20 to 25 g (BALB/c-strain). Four mice were treated intraperitoneally with 50 mg/kg 3-(N-formyl-N-hydroxylamino)-propylphosphonic acid monosodium salt one day before infection. The mice were then infected with Plasmodium vinckeii. Mice which were not pretreated with the substance served as a control group.
# [3] = tested on: Plasmodium falciparum HB3 (Honduras); test: In vitro cytotoxicity against malaria parasites, [3H]-hypoxanthine insertion, strain HB3; format: cell-based; conditions: strain HB3, resistant to pyrimethamine, 48 hours incubation, then 24 hours [3H]-hypoxanthine, read-out: IC50 value (concentration at which the vitality of parasites is reduced by a half)
# Procedure: (§1) On the Principle of IC50 Determination According to Vial et al (the Concentration at Which the Vitality of Parasites is Reduced by a Half)
# (§2) To determine the IC50 value according to Vial et al malaria parasites are initially cultivated for a complete 48 hour cycle in the presence of inhibitors, in the subsequent 24 hours the survival rate is measured by [^3H]-hypoxanthine insertion.
# (§3) A dilution series of 3-(N-formyl-N-hydroxylamino)-propylphosphonic acid monosodium salt is placed in 20 μl aliquots concentrated by 10 on a microtitre plate. Then 180 μl parasite suspension in culture medium is added to each well. Asynchronous cultures with a parasitaemia of approximately 0.4% and 2% haematocrite are used. The microtitre plates are subsequently incubated for 48 hours. Then 30 μl [^3H]-hypoxanthine are added to each well. After 24 hours of incubation the cells were harvested and the incorporated radioactivity was measured. In FIG. 1 the results with the strains HB3 and Dd2 are shown with known resistances against other malaria pharmaceutical compositions. In both strains there is a IC50 value of approximately 100 μg/l. The resistances of these strains are:
# Plasmodium falciparum HB3 (Honduras) is resistant to pyrimethamine.
# [4] = tested on: Plasmodium falciparum Dd2 (Indo-China); test: In vitro cytotoxicity against malaria parasites, [3H]-hypoxanthine insertion, strain Dd2; format: cell-based; conditions: strain Dd2, resistant to cloroquine, quinine, pyrimethamine, cycloguanil and sulfadoxine, 48 hours incubation, then 24 hours [3H]-hypoxanthine, read-out: IC50 value (concentration at which the vitality of parasites is reduced by a half)
# Procedure: as §1, §2, §3
# Plasmodium falciparum Dd2 (Indo-China) is resistant to cloroquine, quinine, pyrimethamine, cycloguanil and sulfadoxine.
structure (smiles),measurement,setting,value
O=CN(O)CCCP(=O)([O-])O.[Na+] [3-(N-formyl-N-hydroxylamino)-propylphosphonic acid monosodium salt],living parasites after 1 day,"Plasmodium vinckeii [1]; 50 mg/kg/d, mice with a parasitaemia of 80%, after 1 day",free of living parasites
same,parasites 8 weeks after the treatment had stopped,"Plasmodium vinckeii [1]; 1,000 mg/kg/d over 3 days, 8 weeks after end of treatment",still free from parasites
same,effect on parasites in the mice's blood,"Plasmodium vinckeii [1]; 1,000 mg/kg/d over 3 days, mice infected with Plasmodium vinckeii",destruction of the parasites
same,living parasites in treated group after one day,"Plasmodium vinckeii [1]; 1,000 mg/kg/d, after just one day",free of living parasites
same,infection in pretreated mice,Plasmodium vinckeii [2]; 50 mg/kg intraperitoneally one day before infection with Plasmodium vinckeii,No infection could be detected
same,parasites 8 weeks after infection,"Plasmodium vinckeii [2]; 50 mg/kg intraperitoneally one day before infection, 8 weeks after infection",still free of parasites
same,IC50,[3],~0.1 µg/mL
same,IC50,[4],~0.1 µg/mL
